What follows are compounds tested against Human immunodeficiency virus type 1 protease (Human immunodeficiency virus 1, UniProt Q72874) (assay: Compound was evaluated for the inhibition of recombinant HIV-1 protease at 37 degrees C and pH of 6.).

| Compound | Ki [µM] |
| --- | --- |
| OC[C@]1(Cc2ccccc2)C[C@H](O)C[C@](CO)(Cc2ccccc2)[C@@H]1O | 830 |
| [O-][S+]1C[C@](CO)(Cc2ccccc2)C(O)[C@@](CO)(Cc2ccccc2)C1 (stereo in doubt; (-)7) | 19 |
| O[C@H]1C[C@H](Cc2ccccc2)[C@H](O)[C@@H](Cc2ccccc2)C1 | > 2000 |
| OC[C@]1(Cc2ccccc2)C[C@H](O)C[C@](CO)(Cc2ccccc2)[C@H]1O | 48 |
| O=C1C[C@](CO)(Cc2ccccc2)C(O)[C@@](CO)(Cc2ccccc2)C1 | 62 |
| O=C1C[C@](O)(Cc2ccccc2)C(O)[C@@](O)(Cc2ccccc2)C1 | 10 |
| OC1[C@@](O)(Cc2ccccc2)CCC[C@]1(O)Cc1ccccc1 | > 2000 |
| [O-][S+]1C[C@](CO)(Cc2ccccc2)C(O)[C@@](CO)(Cc2ccccc2)C1 (stereo in doubt; (+)7) | 7 |

From ChEMBL document CHEMBL1152053, “Nonpeptide HIV protease inhibitors designed to replace a bound water” (Bioorg Med Chem Lett, 1993)
